Reference: PMC10797667 (ACS catalysis, 2020)

How the values were obtained:
[1] = biological target: ANT4' (aminoglycoside nucleotidyl transferase 4') (Staphylococcus aureus, UniProt P05057, E52D/T130K); assay: biochemical
[2] = biological target: ANT4' (aminoglycoside nucleotidyl transferase 4') (Staphylococcus aureus, UniProt P05057); assay: X-ray crystal structure; format: binding; details: binary complex, 0.1-0.2 M MgCl2, pH 7-8; active site
[3] = biological target: ANT4' (aminoglycoside nucleotidyl transferase 4') (Staphylococcus aureus, UniProt P05057, T130K); assay: biochemical

## NC[C@@H]1O[C@H](O[C@H]2[C@@H](O)[C@H](O[C@@H]3[C@@H](O)[C@H](N)C[C@H](N)[C@H]3O[C@H]3O[C@H](CN)[C@@H](O)[C@H](O)[C@H]3N)O[C@@H]2CO)[C@H](N)[C@@H](O)[C@@H]1O [neomycin]
[1]
  Kd: 870 ± 80 nM
[2]
  X-ray crystal structure: A binary neomycin complex was also determined in the wild-type ANT4’ enzyme
[3]
  Kd: 340 ± 30 nM
